Data reported in ChEMBL document CHEMBL1138068 (J Med Chem, 2006).

Tests used:
[1] = molecular target: Neuronal acetylcholine receptor subunit alpha-7 (Rattus norvegicus, UniProt Q05941); experiment: Displacement of [125I]alpha-BTX from alpha-7 nAChR in rat hippocampus membrane; type: cell membranes
Cytochrome P450 2D6 = Cytochrome P450 2D6 (Homo sapiens, UniProt P10635); experiment: Inhibition of CYP2D6; type: ADME
[2] = molecular target: Neuronal acetylcholine receptor subunit alpha-7 (Homo sapiens) (UniProt P36544); experiment: Activity at alpha-7 nAChR assessed as stimulation of relative inward current in cultured hippocampal neurons relative to choline; type: functional, tissue-based; conditions: Hippocampus, filed as agonist
Sequence of Neuronal acetylcholine receptor subunit alpha-7 (Homo sapiens) (P36544 whole entry): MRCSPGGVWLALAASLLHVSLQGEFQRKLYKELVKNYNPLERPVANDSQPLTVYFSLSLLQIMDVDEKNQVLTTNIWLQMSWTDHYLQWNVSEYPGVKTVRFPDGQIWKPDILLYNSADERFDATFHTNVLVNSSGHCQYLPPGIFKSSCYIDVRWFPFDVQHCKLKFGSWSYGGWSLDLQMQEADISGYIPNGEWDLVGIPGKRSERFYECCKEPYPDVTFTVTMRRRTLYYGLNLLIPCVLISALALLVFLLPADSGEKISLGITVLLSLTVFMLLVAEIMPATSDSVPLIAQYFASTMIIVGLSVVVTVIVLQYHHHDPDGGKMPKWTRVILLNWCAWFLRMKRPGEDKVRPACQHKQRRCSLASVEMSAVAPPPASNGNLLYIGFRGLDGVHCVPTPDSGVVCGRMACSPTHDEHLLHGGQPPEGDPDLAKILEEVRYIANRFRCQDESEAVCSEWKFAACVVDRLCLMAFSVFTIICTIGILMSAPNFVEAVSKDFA

Sequence of Neuronal acetylcholine receptor subunit alpha-7 (Q05941 whole entry): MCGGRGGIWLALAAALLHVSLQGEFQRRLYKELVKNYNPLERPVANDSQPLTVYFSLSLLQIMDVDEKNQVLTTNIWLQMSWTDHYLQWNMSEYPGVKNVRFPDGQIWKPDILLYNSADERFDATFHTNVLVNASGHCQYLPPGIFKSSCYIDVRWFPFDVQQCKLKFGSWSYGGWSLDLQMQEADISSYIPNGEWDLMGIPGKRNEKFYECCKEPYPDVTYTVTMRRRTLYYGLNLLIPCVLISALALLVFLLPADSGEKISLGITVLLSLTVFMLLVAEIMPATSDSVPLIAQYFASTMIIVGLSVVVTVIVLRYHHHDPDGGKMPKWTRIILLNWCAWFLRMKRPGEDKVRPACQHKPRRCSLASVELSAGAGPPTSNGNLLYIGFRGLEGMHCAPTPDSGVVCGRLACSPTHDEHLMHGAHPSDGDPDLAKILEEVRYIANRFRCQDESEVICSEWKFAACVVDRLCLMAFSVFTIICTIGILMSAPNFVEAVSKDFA
Sequence of Cytochrome P450 2D6 (P10635 whole entry): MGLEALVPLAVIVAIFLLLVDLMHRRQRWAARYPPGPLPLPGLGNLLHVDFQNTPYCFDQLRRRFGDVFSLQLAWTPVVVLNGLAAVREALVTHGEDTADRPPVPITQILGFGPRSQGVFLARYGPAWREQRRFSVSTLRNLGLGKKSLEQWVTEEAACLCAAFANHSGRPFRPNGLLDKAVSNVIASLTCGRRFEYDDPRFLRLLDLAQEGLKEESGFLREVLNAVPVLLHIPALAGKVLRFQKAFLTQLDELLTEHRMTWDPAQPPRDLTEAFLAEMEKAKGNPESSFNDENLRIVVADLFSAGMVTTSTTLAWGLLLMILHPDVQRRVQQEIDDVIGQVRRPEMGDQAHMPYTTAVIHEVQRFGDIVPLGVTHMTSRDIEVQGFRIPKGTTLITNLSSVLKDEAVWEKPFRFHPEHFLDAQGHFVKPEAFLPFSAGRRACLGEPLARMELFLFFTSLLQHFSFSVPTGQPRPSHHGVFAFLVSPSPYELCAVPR

Row | SMILES | Ki [1] [µM] | IC50 (Cytochrome P450 2D6) [µM] | Activity [2] | IC50 [1] [µM]
1 | O=C1O[C@]2(CN3CCC2CC3)CN1c1ccc2c(c1)OCO2 | 0.037 | > 30 | Agonist | –
2 | O=C1O[C@@]2(CN3CCC2CC3)CN1c1ccc2occ(Br)c2c1 | 0.004 | > 30 | – | –
3 | O=C1NCC2(CN3CCC2CC3)O1 (single isomer, unassigned) | – | – | Agonist | –
4 | CCc1c(C)oc2ccc(N3C[C@@]4(CN5CCC4CC5)OC3=O)cc12 | 0.015 | – | – | –
5 | CCc1coc2ccc(N3C[C@@]4(CN5CCC4CC5)OC3=O)cc12 | 0.008 | 21 | – | –
6 | O=C1O[C@]2(CN3CCC2CC3)CN1c1ccc2sccc2c1 | 0.028 | > 30 | – | –
7 | Cc1cc2cc(N3C[C@@]4(CN5CCC4CC5)OC3=O)ccc2o1 | 0.038 | > 30 | – | –
8 | Cc1nc2cc(N3C[C@@]4(CN5CCC4CC5)OC3=O)ccc2s1 | 0.06 | – | – | –
9 | Cn1c(=O)sc2cc(N3CC4(CN5CCC4CC5)OC3=O)ccc21 (single isomer, unassigned) | – | – | – | > 1
10 | Cc1oc2ccc(N3C[C@@]4(CN5CCC4CC5)OC3=O)cc2c1Br | 0.011 | – | – | –
11 | O=C1O[C@]2(CN3CCC2CC3)CN1c1ccc2c(c1)OCCO2 | 0.175 | – | – | –
12 | O=C1O[C@@]2(CN3CCC2CC3)CN1c1ccc(Br)s1 | 0.004 | 9 | – | –
